Source: PubChem BioAssay (NCI)
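48-hour exposure; five concentrations; linearly interpolated endpoints. Here, GI50 denotes the concentration required for 50% inhibition of growth. Definition used: TGI = concentration required for complete inhibition of growth.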 Where a SMILES comes first, the peptide text is derived from it. The star is where a group is joined. Trt = c1ccc(C(c2ccccc2)(c2ccccc2)*)cc1; Cbz = O=C(OCc1ccccc1)*

Assays:
Experiment in all cases: NCI-60 cell line screen, 48 h
MCF7 breast = test system: MCF7 breast
SN12C renal = test system: SN12C renal
SK-OV-3 ovarian = test system: SK-OV-3 ovarian
CAKI-1 renal = test system: CAKI-1 renal
HCT-15 colon = test system: HCT-15 colon
MDA-MB-231 breast = test system: MDA-MB-231 breast
HS 578T breast = test system: HS 578T breast
KM12 colon = test system: KM12 colon
SK-MEL-2 melanoma = test system: SK-MEL-2 melanoma
UACC-62 melanoma = test system: UACC-62 melanoma

SMILES	GI50 (MCF7 breast) [µM]	TGI (MCF7 breast) [µM]	GI50 (SN12C renal) [µM]	TGI (SN12C renal) [µM]	GI50 (SK-OV-3 ovarian) [µM]	TGI (SK-OV-3 ovarian) [µM]	GI50 (CAKI-1 renal) [µM]	TGI (CAKI-1 renal) [µM]	GI50 (HCT-15 colon) [µM]	TGI (HCT-15 colon) [µM]	GI50 (MDA-MB-231 breast) [µM]	TGI (MDA-MB-231 breast) [µM]	GI50 (HS 578T breast) [µM]	TGI (HS 578T breast) [µM]	GI50 (KM12 colon) [µM]	TGI (KM12 colon) [µM]	GI50 (SK-MEL-2 melanoma) [µM]	TGI (SK-MEL-2 melanoma) [µM]	GI50 (UACC-62 melanoma) [µM]	TGI (UACC-62 melanoma) [µM]
CCOC(=O)c1c(C)n(Cc2ccccc2)c2c1cc1oc(=O)c(=O)n3cnc2c13	17.7	> 50	10.4	24.9	> 50	> 50	14.7	48.8	16.2	> 50	13	> 50	34.3	> 50	19.2	> 50	> 50	> 50	16.6	> 50
CCN(CC)Cc1cc(Nc2c3ccccc3nc3cc(Cl)ccc23)ccc1O	0.96	2.46	1.05	2.67	2.01	3.86	1.87	4.73	3.49	17	1.73	3.59	2.26	6.24	1.59	3.77	1.75	3.36	2.1	4
Cc1cc(Br)cc(C)c1NC(=O)C(=O)Nn1c(=S)[nH]c2ccccc2c1=O	–	> 100	–	> 100	–	> 100	–	> 100	–	> 100	–	> 100	–	> 100	–	> 100	–	> 100	–	> 100
CCCOC(=O)C1C2CCC(O2)C1C(=O)O (stereo not given)	–	> 100	–	> 100	–	> 100	–	> 100	–	> 100	–	> 100	–	> 100	–	> 100	–	> 100	–	> 100
COC(=O)C(CSC(c1ccccc1)(c1ccccc1)c1ccccc1)NC(=O)C(CC(N)=O)NC(=O)OCc1ccccc1 (stereo not drawn) (Cbz-Asn-Cys(Trt)-OMe; configuration not given here)	4.54	27.4	3.54	15	2.42	10.2	3.51	14.3	3.81	14.1	2.93	10.9	4.55	26.5	4.62	17	2.12	5.49	3.15	14.1
NNC(=O)C(O)C(O)C(=O)NN (stereo not given)	–	> 100	–	> 100	–	> 100	–	> 100	–	> 100	–	> 100	–	> 100	–	> 100	–	> 100	–	> 100
